Data published in patent US6391324B1, “Cosmetic skin care compositions containing pulegone” (Unilever Home & Personal Care USA, Division of Conopco, priority 2000, dated 2002).

Tests used:
Type in all cases: cell-based
human keratinocytes [1] = assay: Transglutaminase (TG-1) Assay; conditions: for TG-1/DNA % of CONTROL / TG-1/DNA (Absorbance/Arbitrary Units of DNA ± Standard Deviation): three days
Description: (§1) Normal human keratinocytes, isolated from neonatal foreskin by trypsin treatment, were grown in Dulbecco's Modified Eagle's Medium (DMEM, Life Technologies, Grand Island, N.Y.) with 10% fetal bovine serum in the presence of irradiated mouse fibroblasts for establishing dividing keratinocyte colonies. Cells were incubated until their second passage and stored at −70° C. for future use. All incubations took place at 37° C. with 5% CO2. Frozen second passage keratinocytes were thawed and plated in T-175 flasks (Corning, Corning, N.Y.) with DMEM and grown for five days. After reaching 80% confluence, they were trypsinized and seeded into 6-well plates containing keratinocyte growth medium (KGM, Clonetics, San Diego, Calif.) with 0.15 mM calcium.
A sample of the keratinocytes grown in the keratinocyte culture described above, were placed in KGM (2 ml per well) at 0.2 million cells/plate in 6-well plates and re-grown for five days until the cells reached approximately […], since TG-1 only begins to become expressed after confluence. […] One set of triplicate wells was left untreated to serve as control. After three days of incubation, cells were washed thoroughly with phosphate buffered saline (PBS, 10 mM sodium phosphate, 138 mM sodium chloride, 2.7 mM potassium chloride, pH 7.4) and placed at −70° C. for 2 hours. Cells were then thawed for two hours. The DNA content of cells was quantified by using the DNA-binding fluorophore, bis-benzimidazole (Hoechst 33258) and measuring the specific fluorescence of the DNA-bound fluorophore (360 nm excitation, 450 nm emission). Cellular TG-1 levels were determined by using a transglutaminase-1 (TG-1) specific monoclonal antibody as the primary antibody (BC1, Amersham, UK) and a peroxidase labeled rabbit antimouse IgG as the secondary antibody (Amersham, UK). The plates were blocked at room temperature with 5% nonfat milk in Tris-buffered saline (TBS, 10 mM Tris, 150 mM NaCL, pH 8.0) for one hour followed by two hours incubation with the primary antibody (1:4000 dilution) in 1% milk/TBS at room temperature. After rinsing the plates three times with 1% milk/TBS containing 0.05% Tween 20 (Bio-Rad, Hercules, Calif.), the plates were incubated with a 1:4000 dilution of the secondary antibody at room temperature for two hours. The plates were then rinsed three times with 1% milk/0.05% Tween 20/TBS and three times with PBS. Color was developed by incubation with o-phenylene-diamine (Sigma, St. Louis, Mo.) and hydrogen peroxide (Sigma) dissolved in a 1:1 mixture of 0.2 M dibasic sodium phosphate (Sigma) and 0.1 M citric acid at pH 5.0(Sigma). Solutions were transferred to 4 mL plastic cuvets (Fisher Scientific, Pittsburgh, Pa.) and the absorbance was read at 492 nm on an Ultraspec 3000 spectrophotometer (Pharmacia, Piscataway, N.J.) and TG-1 levels were expressed as absorbence/DNA fluoroscence.
(§2) Concentrations used in the examples below are of pulegone in a corn oil droplet. The in vitro concentration may not be relevant to in vivo concentration because there is partitioning between the oil and the culture medium. The medium concentration of the active is not the oil droplet concentration of the active. For the pulegone to elicit its effect on the cultured cells, it must diffuse out of the corn oil into the culture medium where it is then accessible to the cells. The pulegone concentration in the culture medium is therefore considerably less than the concentration in the corn oil droplet.

human keratinocytes [2] = assay: Lipid Analysis (ceramides expression); conditions: for CERAMIDES % of CONTROL / CERAMIDES (ng/μg PROTEIN ± S.D.): three days
Description: as §1
A sample of the keratinocytes that were grown in the keratinocyte culture described above were placed in KGM (2 ml per well) at 0.2 million per 6-well plates and re-grown for five days until approximately 20% confluence was reached. Cells were fed and treated with pulegone as described above for the TG-1 Assay. After three days of treatment, cells were rinsed twice with PBS, then harvested by adding 3 ml of 0.1 N NaOH (Fisher) to each well and scraping with a rubber policeman. The supernatants were transferred to 16 mm×100 mm glass test tubes with teflon-coated caps and incubated for 1 hour at 70° C. After cooling to room temperature, a 50 μl aliquot was removed for protein determination (Pierce BCA assay, Rockford, Ill.). To each tube 320 μl of 1 N HCl and 2.5 ml of chloroform were added and the tubes mixed well. The tubes were then placed on a tumbler and agitated for thirty minutes. The mixtures were then centrifuged for 10 minutes at 2000×g. 2 mL of chloroform were removed from the organic phase and placed in an autosampler vial. The samples were then dried evaporated under N2, resuspended in 60 μl of chloroform:methanol 2:1 and transferred to an autosampler insert microtube which was placed inside another autosampler vial whcih was sealed. 40 μl of the sample was spotted (Camag Automatic TLC Sampler III, Wilmington, N.C.) on silica TLC plates (Whatman 4807-700) and the plates were developed in horizontal chambers (Camag) using the following solvent system: 1. 95:4.5:0.5 chloroform, methanol, acetic acid and 2. 60:40:2 hexane, ethyl ether, acetic acid. Following immersion in 10% copper sulfate in 8% phosphoric acid, plates were charred at 165° C. for 20 minutes and then read in a densitometer (Camag TLC Scanner II). The results were expressed in ng cermaides/μg protein.
as §2

human keratinocytes [3] = assay: Glucose Uptake Assay (3H 2-deoxy-glucose); conditions: for GLUCOSE UPTAKE % of CONTROL / GLUCOSE UPTAKE (cpm/μg PROTEIN ± S.D.): 4 hours preincubation
Description: as §1
A sample of the keratinocytes grown in the keratinocyte culture described above, were plated in KGM medium at either 0.5 or 1 million cells/plate in six well plates and incubated for 4 days. The medium was then aspirated, and the wells were rinsed twice with Phosphate Buffered Saline (PBS), then the plates were incubated (1 mL/well) for 24 hours. The medium was replaced with fresh KBM, 10 μl of corn oil containing pulegone at various concentrations were added and cells were allowed to incubate (for 4 hours at 37° C.) before 2 μCi of ^3H 2-deoxy-glucose (Amersham, UK) were added to each well. Samples were then incubated for one hour. The medium was aspirated and wells were rinsed three times with PBS before the addition of 500 μL of 0.1N NaOH/well. After 10 minutes of agitation on a shaker, a 25 μL aliquot was removed for protein analysis, and 200 μL were transferred to a scintillation vial containing 5 mL Scintillation cocktail (Scintiverse) and counting was performed on a Beckman counter. ^3H-Glucose uptake results were expressed as CPM/μg protein.
as §2

[4] = pulegone 1% in corn oil droplet
[5] = pulegone 2.5% in corn oil droplet
[6] = pulegone 5% in corn oil droplet

Structure (SMILES): CC(C)=C1CCC(C)CC1=O (stereo not shown) [Pulegone, 5-Methyl-2-(1-methylethylidene)cyclohexanone]
- TG-1/DNA % of CONTROL (human keratinocytes [1]; [4]): 121%
- TG-1/DNA (Absorbance/Arbitrary Units of DNA ± Standard Deviation) (human keratinocytes [1]; [4]): 15.45 ± 2.32 Absorbance/Arbitrary Units of
- TG-1/DNA % of CONTROL (human keratinocytes [1]; [5]): 196%
- TG-1/DNA (Absorbance/Arbitrary Units of DNA ± Standard Deviation) (human keratinocytes [1]; [5]): 24.96 ± 4.85 Absorbance/Arbitrary Units of
- TG-1/DNA % of CONTROL (human keratinocytes [1]; [6]): 286%
- TG-1/DNA (Absorbance/Arbitrary Units of DNA ± Standard Deviation) (human keratinocytes [1]; [6]): 36.40 ± 0.89 Absorbance/Arbitrary Units of
- transglutaminase-1 expression in comparison to untreated keratinocytes (human keratinocytes [1]; pulegone at 2.5% and 5% in corn oil): increased transglutaminase-1 expression
- CERAMIDES % of CONTROL (human keratinocytes [2]; [4]): 65%
- CERAMIDES (ng/μg PROTEIN ± S.D.) (human keratinocytes [2]; [4]): 8.97 ± 1.17 ng/μg PROTEIN
- CERAMIDES % of CONTROL (human keratinocytes [2]; [5]): 171%
- CERAMIDES (ng/μg PROTEIN ± S.D.) (human keratinocytes [2]; [5]): 23.8 ± 11.0 ng/μg PROTEIN
- CERAMIDES % of CONTROL (human keratinocytes [2]; [6]): 308%
- CERAMIDES (ng/μg PROTEIN ± S.D.) (human keratinocytes [2]; [6]): 42.8 ± 6.91 ng/μg PROTEIN
- expression of ceramides in comparison to untreated keratinocytes (human keratinocytes [2]; pulegone in corn oil): increased expression of ceramides
- GLUCOSE UPTAKE % of CONTROL (human keratinocytes [3]; [4]): 77%
- GLUCOSE UPTAKE (cpm/μg PROTEIN ± S.D.) (human keratinocytes [3]; [4]): 3.71 ± 0.35 cpm/μg PROTEIN
- GLUCOSE UPTAKE % of CONTROL (human keratinocytes [3]; [6]): 189%
- GLUCOSE UPTAKE (cpm/μg PROTEIN ± S.D.) (human keratinocytes [3]; [6]): 9.14 ± 0.69 cpm/μg PROTEIN
- glucose uptake (human keratinocytes [3]; pulegone in corn oil): significantly increased glucose uptake
